Test results: the supplement of paper PMC8882468

tested on: HCI-019 (organoid from a triple-negative breast cancer xenograft); experiment: CTG-3D luminescence at 96 h relative to day-0 seeding control (ratio to day 0); higher = more growth / less cytotoxicity; PDxO 3D drug screen, 96 h, CTG-3D normalised to day-0 seeding control.; settings: 10 µM; days in culture: 131

| Compound | CTG-3D luminescence at 96 h |
| --- | --- |
| CC(C)(C(=O)NCC(F)(F)C(F)(F)F)C(=O)N[C@@H]1C(=O)Nc2ccccc2-c2ccccc21 | 3.61 |
| C=CC(=O)N1CCC[C@@H](n2nc(-c3ccc(Oc4ccccc4)cc3)c3c(N)ncnc32)C1 [ibrutinib] | 2.27 |
| CNC(=O)c1cccc(-c2ccc3c(N4CCOC[C@@H]4C)nc(N4CCOC[C@@H]4C)nc3n2)c1 [vistusertib] | 1.24 |
| CCN(c1cc(C#CCN2CCOCC2)cc(C(=O)NCc2c(C)cc(C)[nH]c2=O)c1C)[C@H]1CC[C@H](N(C)CCOC)CC1 | 2.33 |

same assay, conditions: 10 µM; days in culture: 152

| Compound | CTG-3D luminescence at 96 h |
| --- | --- |
| CC(C)(C(=O)NCC(F)(F)C(F)(F)F)C(=O)N[C@@H]1C(=O)Nc2ccccc2-c2ccccc21 | 2.41 |
| C=CC(=O)N1CCC[C@@H](n2nc(-c3ccc(Oc4ccccc4)cc3)c3c(N)ncnc32)C1 [ibrutinib] | 1.75 |
| CNC(=O)c1cccc(-c2ccc3c(N4CCOC[C@@H]4C)nc(N4CCOC[C@@H]4C)nc3n2)c1 [vistusertib] | 0.759 |
| CCN(c1cc(C#CCN2CCOCC2)cc(C(=O)NCc2c(C)cc(C)[nH]c2=O)c1C)[C@H]1CC[C@H](N(C)CCOC)CC1 | 1.9 |

same assay, conditions: 100 µM; days in culture: 110

| Compound | CTG-3D luminescence at 96 h |
| --- | --- |
| CC(C)(C(=O)NCC(F)(F)C(F)(F)F)C(=O)N[C@@H]1C(=O)Nc2ccccc2-c2ccccc21 | 1.37 |
| C=CC(=O)N1CCC[C@@H](n2nc(-c3ccc(Oc4ccccc4)cc3)c3c(N)ncnc32)C1 [ibrutinib] | -0.00836 |
| CNC(=O)c1cccc(-c2ccc3c(N4CCOC[C@@H]4C)nc(N4CCOC[C@@H]4C)nc3n2)c1 [vistusertib] | 0.492 |
| CCN(c1cc(C#CCN2CCOCC2)cc(C(=O)NCc2c(C)cc(C)[nH]c2=O)c1C)[C@H]1CC[C@H](N(C)CCOC)CC1 | 2.01 |

same assay, conditions: 100 µM; days in culture: 131

| Compound | CTG-3D luminescence at 96 h |
| --- | --- |
| CC(C)(C(=O)NCC(F)(F)C(F)(F)F)C(=O)N[C@@H]1C(=O)Nc2ccccc2-c2ccccc21 | 2.28 |
| C=CC(=O)N1CCC[C@@H](n2nc(-c3ccc(Oc4ccccc4)cc3)c3c(N)ncnc32)C1 [ibrutinib] | -0.0163 |
| CNC(=O)c1cccc(-c2ccc3c(N4CCOC[C@@H]4C)nc(N4CCOC[C@@H]4C)nc3n2)c1 [vistusertib] | 0.736 |
| CCN(c1cc(C#CCN2CCOCC2)cc(C(=O)NCc2c(C)cc(C)[nH]c2=O)c1C)[C@H]1CC[C@H](N(C)CCOC)CC1 | 0.501 |

same assay, conditions: 100 µM; days in culture: 152

| Compound | CTG-3D luminescence at 96 h |
| --- | --- |
| CC(C)(C(=O)NCC(F)(F)C(F)(F)F)C(=O)N[C@@H]1C(=O)Nc2ccccc2-c2ccccc21 | 1.12 |
| C=CC(=O)N1CCC[C@@H](n2nc(-c3ccc(Oc4ccccc4)cc3)c3c(N)ncnc32)C1 [ibrutinib] | -0.00421 |
| CNC(=O)c1cccc(-c2ccc3c(N4CCOC[C@@H]4C)nc(N4CCOC[C@@H]4C)nc3n2)c1 [vistusertib] | 0.555 |
| CCN(c1cc(C#CCN2CCOCC2)cc(C(=O)NCc2c(C)cc(C)[nH]c2=O)c1C)[C@H]1CC[C@H](N(C)CCOC)CC1 | 0.188 |

same assay, conditions: 625 fM; days in culture: 110

| Compound | CTG-3D luminescence at 96 h |
| --- | --- |
| CC(C)(C(=O)NCC(F)(F)C(F)(F)F)C(=O)N[C@@H]1C(=O)Nc2ccccc2-c2ccccc21 | 1.84 |
| C=CC(=O)N1CCC[C@@H](n2nc(-c3ccc(Oc4ccccc4)cc3)c3c(N)ncnc32)C1 [ibrutinib] | 2.04 |
| CNC(=O)c1cccc(-c2ccc3c(N4CCOC[C@@H]4C)nc(N4CCOC[C@@H]4C)nc3n2)c1 [vistusertib] | 2.38 |
| CCN(c1cc(C#CCN2CCOCC2)cc(C(=O)NCc2c(C)cc(C)[nH]c2=O)c1C)[C@H]1CC[C@H](N(C)CCOC)CC1 | 2.28 |

same assay, conditions: 625 fM; days in culture: 131

| Compound | CTG-3D luminescence at 96 h |
| --- | --- |
| CC(C)(C(=O)NCC(F)(F)C(F)(F)F)C(=O)N[C@@H]1C(=O)Nc2ccccc2-c2ccccc21 | 4.34 |
| C=CC(=O)N1CCC[C@@H](n2nc(-c3ccc(Oc4ccccc4)cc3)c3c(N)ncnc32)C1 [ibrutinib] | 2.86 |
| CNC(=O)c1cccc(-c2ccc3c(N4CCOC[C@@H]4C)nc(N4CCOC[C@@H]4C)nc3n2)c1 [vistusertib] | 3.83 |
| CCN(c1cc(C#CCN2CCOCC2)cc(C(=O)NCc2c(C)cc(C)[nH]c2=O)c1C)[C@H]1CC[C@H](N(C)CCOC)CC1 | 3.23 |

same assay, conditions: 625 fM; days in culture: 152

| Compound | CTG-3D luminescence at 96 h |
| --- | --- |
| CC(C)(C(=O)NCC(F)(F)C(F)(F)F)C(=O)N[C@@H]1C(=O)Nc2ccccc2-c2ccccc21 | 1.98 |
| C=CC(=O)N1CCC[C@@H](n2nc(-c3ccc(Oc4ccccc4)cc3)c3c(N)ncnc32)C1 [ibrutinib] | 2.48 |
| CNC(=O)c1cccc(-c2ccc3c(N4CCOC[C@@H]4C)nc(N4CCOC[C@@H]4C)nc3n2)c1 [vistusertib] | 2.52 |
| CCN(c1cc(C#CCN2CCOCC2)cc(C(=O)NCc2c(C)cc(C)[nH]c2=O)c1C)[C@H]1CC[C@H](N(C)CCOC)CC1 | 2.36 |

tested on: HCI-024 (organoid from a breast cancer xenograft); experiment: as above; settings: 12.5 pM; days in culture: 105

| Compound | CTG-3D luminescence at 96 h |
| --- | --- |
| CC(C)(C(=O)NCC(F)(F)C(F)(F)F)C(=O)N[C@@H]1C(=O)Nc2ccccc2-c2ccccc21 | 1.79 |
| C=CC(=O)N1CCC[C@@H](n2nc(-c3ccc(Oc4ccccc4)cc3)c3c(N)ncnc32)C1 [ibrutinib] | 1.56 |
| CNC(=O)c1cccc(-c2ccc3c(N4CCOC[C@@H]4C)nc(N4CCOC[C@@H]4C)nc3n2)c1 [vistusertib] | 1.75 |
| CCN(c1cc(C#CCN2CCOCC2)cc(C(=O)NCc2c(C)cc(C)[nH]c2=O)c1C)[C@H]1CC[C@H](N(C)CCOC)CC1 | 1.44 |

same assay, conditions: 12.5 pM; days in culture: 122

| Compound | CTG-3D luminescence at 96 h |
| --- | --- |
| CC(C)(C(=O)NCC(F)(F)C(F)(F)F)C(=O)N[C@@H]1C(=O)Nc2ccccc2-c2ccccc21 | 2.28 |
| C=CC(=O)N1CCC[C@@H](n2nc(-c3ccc(Oc4ccccc4)cc3)c3c(N)ncnc32)C1 [ibrutinib] | 2.18 |
| CNC(=O)c1cccc(-c2ccc3c(N4CCOC[C@@H]4C)nc(N4CCOC[C@@H]4C)nc3n2)c1 [vistusertib] | 2.25 |
| CCN(c1cc(C#CCN2CCOCC2)cc(C(=O)NCc2c(C)cc(C)[nH]c2=O)c1C)[C@H]1CC[C@H](N(C)CCOC)CC1 | 1.71 |

same assay, conditions: 12.5 pM; days in culture: 163

| Compound | CTG-3D luminescence at 96 h |
| --- | --- |
| CC(C)(C(=O)NCC(F)(F)C(F)(F)F)C(=O)N[C@@H]1C(=O)Nc2ccccc2-c2ccccc21 | 2.14 |
| C=CC(=O)N1CCC[C@@H](n2nc(-c3ccc(Oc4ccccc4)cc3)c3c(N)ncnc32)C1 [ibrutinib] | 1.47 |
| CNC(=O)c1cccc(-c2ccc3c(N4CCOC[C@@H]4C)nc(N4CCOC[C@@H]4C)nc3n2)c1 [vistusertib] | 1.9 |
| CCN(c1cc(C#CCN2CCOCC2)cc(C(=O)NCc2c(C)cc(C)[nH]c2=O)c1C)[C@H]1CC[C@H](N(C)CCOC)CC1 | 1.65 |

same assay, conditions: 0.00025 µM; days in culture: 105

| Compound | CTG-3D luminescence at 96 h |
| --- | --- |
| CC(C)(C(=O)NCC(F)(F)C(F)(F)F)C(=O)N[C@@H]1C(=O)Nc2ccccc2-c2ccccc21 | 1.33 |
| C=CC(=O)N1CCC[C@@H](n2nc(-c3ccc(Oc4ccccc4)cc3)c3c(N)ncnc32)C1 [ibrutinib] | 1.54 |
| CNC(=O)c1cccc(-c2ccc3c(N4CCOC[C@@H]4C)nc(N4CCOC[C@@H]4C)nc3n2)c1 [vistusertib] | 1.79 |
| CCN(c1cc(C#CCN2CCOCC2)cc(C(=O)NCc2c(C)cc(C)[nH]c2=O)c1C)[C@H]1CC[C@H](N(C)CCOC)CC1 | 1.62 |

same assay, conditions: 0.00025 µM; days in culture: 122

| Compound | CTG-3D luminescence at 96 h |
| --- | --- |
| CC(C)(C(=O)NCC(F)(F)C(F)(F)F)C(=O)N[C@@H]1C(=O)Nc2ccccc2-c2ccccc21 | 1.94 |
| C=CC(=O)N1CCC[C@@H](n2nc(-c3ccc(Oc4ccccc4)cc3)c3c(N)ncnc32)C1 [ibrutinib] | 2.8 |
| CNC(=O)c1cccc(-c2ccc3c(N4CCOC[C@@H]4C)nc(N4CCOC[C@@H]4C)nc3n2)c1 [vistusertib] | 2.36 |
| CCN(c1cc(C#CCN2CCOCC2)cc(C(=O)NCc2c(C)cc(C)[nH]c2=O)c1C)[C@H]1CC[C@H](N(C)CCOC)CC1 | 2.29 |

same assay, conditions: 0.00025 µM; days in culture: 163

| Compound | CTG-3D luminescence at 96 h |
| --- | --- |
| CC(C)(C(=O)NCC(F)(F)C(F)(F)F)C(=O)N[C@@H]1C(=O)Nc2ccccc2-c2ccccc21 | 2.11 |
| C=CC(=O)N1CCC[C@@H](n2nc(-c3ccc(Oc4ccccc4)cc3)c3c(N)ncnc32)C1 [ibrutinib] | 2.09 |
| CNC(=O)c1cccc(-c2ccc3c(N4CCOC[C@@H]4C)nc(N4CCOC[C@@H]4C)nc3n2)c1 [vistusertib] | 2.22 |
| CCN(c1cc(C#CCN2CCOCC2)cc(C(=O)NCc2c(C)cc(C)[nH]c2=O)c1C)[C@H]1CC[C@H](N(C)CCOC)CC1 | 2.26 |

same assay, conditions: 0.005 µM; days in culture: 105

| Compound | CTG-3D luminescence at 96 h |
| --- | --- |
| CC(C)(C(=O)NCC(F)(F)C(F)(F)F)C(=O)N[C@@H]1C(=O)Nc2ccccc2-c2ccccc21 | 0.962 |
| C=CC(=O)N1CCC[C@@H](n2nc(-c3ccc(Oc4ccccc4)cc3)c3c(N)ncnc32)C1 [ibrutinib] | 1.35 |
| CNC(=O)c1cccc(-c2ccc3c(N4CCOC[C@@H]4C)nc(N4CCOC[C@@H]4C)nc3n2)c1 [vistusertib] | 1.36 |
| CCN(c1cc(C#CCN2CCOCC2)cc(C(=O)NCc2c(C)cc(C)[nH]c2=O)c1C)[C@H]1CC[C@H](N(C)CCOC)CC1 | 1.27 |

same assay, conditions: 0.005 µM; days in culture: 122

| Compound | CTG-3D luminescence at 96 h |
| --- | --- |
| CC(C)(C(=O)NCC(F)(F)C(F)(F)F)C(=O)N[C@@H]1C(=O)Nc2ccccc2-c2ccccc21 | 1.8 |
| C=CC(=O)N1CCC[C@@H](n2nc(-c3ccc(Oc4ccccc4)cc3)c3c(N)ncnc32)C1 [ibrutinib] | 2.14 |
| CNC(=O)c1cccc(-c2ccc3c(N4CCOC[C@@H]4C)nc(N4CCOC[C@@H]4C)nc3n2)c1 [vistusertib] | 2.05 |
| CCN(c1cc(C#CCN2CCOCC2)cc(C(=O)NCc2c(C)cc(C)[nH]c2=O)c1C)[C@H]1CC[C@H](N(C)CCOC)CC1 | 2.04 |
